System: PAI-1
Assay: 35S-methionine radiolabelling for the synthesis of PAI-1 in chondrocytes (SDS-PAGE, fluorography)
Type: cell-based, bovine
Conditions: 24 hours; Piasclédine 300 10 μg/ml or TGF-β1 1 ng/ml; cell+matrix fraction
Method: The chondrocytes are isolated from calf cartilages as described in the article by Benya et al. (“The progeny of articular chondrocytes synthesize collagen types I and II trimer, but not type II. Verification by cyanogen bromide peptide analysis”, Biochemistry 1977; 16: 865-872). Primary cultures of chondrocytes are used in order to minimize the phenotypic changes. The cultures are plated at the rate of 6.0×10^6 cells per 175-cm^2 dish (for the extraction of RNA), at the rate of 5.0×10^6 cells per well in 6-well plates (9.6 cm^2) (for the labelling of PAI-1) and at the rate of 1.2×10^6 cells in 100-mm Petri dishes (transfection). […]
The confluent cultures in 6-well plates (9.6 cm^2) are labelled with [^35S]methionine (40 μCi/nil, Arnersham, France) in the presence of Piasclédine 300® (10 μg/nil) and TGF-β1 (1 ng/ml) for 24 hours. […] The band at 46 kD is determined to correspond to PAI-1 by previous immunoblotting using a rabbit polyclonal anti-PAI-1 antibody (Dako, Copenhagen, Denmark) as described in the article by Laiho M et al., reference cited above.
It was observed that the medium contained only minor quantities of newly-synthesized PAI-1. […]

TGF-β1: transforming growth factor β1 protein, 1 ng/ml, marketed by R & D Systems, used as positive control
PAI-1 fraction (synthesis of PAI-1) versus control cultures: significantly greater

From patent publication US7744933B2, “Use of unsaponifiable components of vegetable oils for preparing a cosmetic and related treatments” (Laboratories Expanscience, priority 1998, dated 2010)
